Test [1] concerns the target T1, Proto-oncogene tyrosine-protein kinase Src (Gallus gallus, UniProt P00523). In words: Inhibition of p60 c-Src tyrosine kinase activity.
Test [2] deals with Tyrosine-protein kinase ABL (Homo sapiens, UniProt P00519+P42684).
Description: Inhibition of v-Abl tyrosine kinase activity
Test [3] has as its target Epidermal growth factor receptor (Homo sapiens, UniProt P00533). In words: Inhibition of Epidermal growth factor receptor (EGF-R) tyrosine kinase activity.
Test [4] has as its target T1, Proto-oncogene tyrosine-protein kinase Src. In words: Inhibition of p60 c-Src tyrosine kinase mediated phosphorylation of Fak in IC8.1 fibroblasts. The class given is functional.
Test [5] shares this target. In words: Inhibition of p60 c-Src tyrosine kinase at 830 ng/mL.

Results on 23 compounds are retold here after ChEMBL document CHEMBL1134829, “7-Alkyl- and 7-cycloalkyl-5-aryl-pyrrolo[2,3-d]pyrimidines--potent inhibitors of the tyrosine kinase c-Src” (Bioorg Med Chem Lett, 2001).

As a reminder, the pIC50 is the IC50 on a negative log10 scale, so that one unit is a factor of ten. In general, IC50 refers to the point on the concentration scale where inhibition reaches its midpoint. Higher therefore signals a need for much substance.

pIC50: −log10 of the molar value.

Epidermal growth factor receptor, sequence (P00533 whole entry): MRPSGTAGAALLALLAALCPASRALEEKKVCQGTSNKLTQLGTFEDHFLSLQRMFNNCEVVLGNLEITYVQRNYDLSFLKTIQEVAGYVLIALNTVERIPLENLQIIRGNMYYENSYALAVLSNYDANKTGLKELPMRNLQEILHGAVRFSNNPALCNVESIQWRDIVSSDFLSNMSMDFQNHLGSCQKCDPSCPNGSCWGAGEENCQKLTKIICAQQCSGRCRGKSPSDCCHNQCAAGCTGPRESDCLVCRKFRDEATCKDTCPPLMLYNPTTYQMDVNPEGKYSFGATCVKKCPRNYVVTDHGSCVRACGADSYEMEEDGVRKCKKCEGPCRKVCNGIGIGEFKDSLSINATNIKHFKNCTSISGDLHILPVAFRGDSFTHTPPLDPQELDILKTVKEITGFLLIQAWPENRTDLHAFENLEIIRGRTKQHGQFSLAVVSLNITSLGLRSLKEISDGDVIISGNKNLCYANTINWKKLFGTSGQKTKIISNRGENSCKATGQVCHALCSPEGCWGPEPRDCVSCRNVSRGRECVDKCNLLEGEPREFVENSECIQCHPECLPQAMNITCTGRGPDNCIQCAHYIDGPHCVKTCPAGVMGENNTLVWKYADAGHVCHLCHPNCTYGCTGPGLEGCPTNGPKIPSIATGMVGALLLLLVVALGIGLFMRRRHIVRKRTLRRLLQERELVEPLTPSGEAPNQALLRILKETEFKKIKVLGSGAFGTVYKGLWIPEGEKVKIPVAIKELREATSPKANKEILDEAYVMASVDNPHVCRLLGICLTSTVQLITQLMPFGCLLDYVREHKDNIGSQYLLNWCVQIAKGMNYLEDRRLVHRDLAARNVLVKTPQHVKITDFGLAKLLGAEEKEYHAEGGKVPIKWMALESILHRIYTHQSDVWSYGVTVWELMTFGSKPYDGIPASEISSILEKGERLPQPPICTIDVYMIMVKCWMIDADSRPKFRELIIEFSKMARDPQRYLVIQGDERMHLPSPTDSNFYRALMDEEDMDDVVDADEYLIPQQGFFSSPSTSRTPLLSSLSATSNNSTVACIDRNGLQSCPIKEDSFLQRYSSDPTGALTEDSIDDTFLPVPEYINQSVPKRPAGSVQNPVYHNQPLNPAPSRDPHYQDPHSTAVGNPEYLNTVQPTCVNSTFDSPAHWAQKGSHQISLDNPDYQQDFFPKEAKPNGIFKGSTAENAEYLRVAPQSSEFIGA

Regarding `Nc1ncnc2c1c(-c1ccc(O)cc1)cn2C1CCC1`, the pIC50 in test [1] is 8.00; in test [3], 6.22; in test [4], 5.82. In test [2], this compound came in with an IC50 of 85 nM.

Take `Nc1ncnc2c1c(-c1ccccc1)cn2C1CCC(O)C1` (stereo unspecified): the pIC50 is 7.30 in test [1], 6.10 in test [3] and 6.70 in test [4]. In test [2], this compound registered an IC50 of 40 nM.

With `COc1cccc(-c2cn(C3CC(CNCCO)C3)c3ncnc(N)c23)c1` (stereo unspecified), the pIC50 in test [1] was 7.70; in test [3], 6.31; in test [4], 6.52. The same compound displayed an IC50 in test [2] of 420 nM.

In the case of `COc1cccc(-c2cn(C3CC(CO)C3)c3ncnc(N)c23)c1` (stereo unspecified), the results for the pIC50 in test [1] and in test [4] were 7.52 and 5.70, respectively. The compound further returned an IC50 in test [2] of 40 nM.

As to `Nc1ncnc2c1c(-c1cccc(O)c1)cn2C1CCCC1`, the pIC50 in test [1] is 9.00; in test [3], 7.10; in test [4], 6.70.

For `Nc1ncnc2c1c(-c1ccc(O)cc1)cn2C1CCCC1`, the figures for the pIC50 in test [1], in test [3] and in test [4] were 7.70, 6.60 and 6.52, respectively. In test [2], this compound returned an IC50 of 110 nM.

Regarding `COc1ccc(CC(CO)n2cc(-c3cccc(OC)c3)c3c(N)ncnc32)cc1` (stereo unspecified), the pIC50 was 6.00 in test [1] and 5.01 in test [3].

With `Nc1ncnc2c1c(-c1ccccc1)cn2C(CO)Cc1ccccc1` (stereo unspecified), the values for the pIC50 in test [1] and in test [3] were 6.22 and 6.36, respectively. Further, the IC50 in test [2] turned out to be 10500 nM.

Turning to `COc1ccc(-c2cn(C3CCC3)c3ncnc(N)c23)cc1`, the pIC50 in test [1] is 6.70; in test [4], 5.52.

With `COc1ccc(CC(CO)n2cc(-c3ccccc3)c3c(N)ncnc32)cc1` (stereo unspecified), the figures for the pIC50 in test [1], in test [3] and in test [4] were less than 6.00, 4.84 and less than 5.30, respectively. In addition, the IC50 in test [2] was greater than 10000 nM.

Turning to `COc1cccc(-c2cn(C3CCC3)c3ncnc(N)c23)c1`, the figures for the negative-log IC50 (pIC50) in test [1], in test [3] and in test [4] were 7.40, 6.35 and 6.22, respectively. The same compound registered an IC50 in test [2] of 50 nM.

Take `COc1ccc(CC(CO)n2cc(-c3cccc(O)c3)c3c(N)ncnc32)cc1` (stereo unspecified): the pIC50 is 7.38 in test [1], 5.47 in test [3] and 6.40 in test [4]. In addition, in test [2], the concentration for half-maximal inhibition (IC50) worked out at 340 nM.

Compound `Nc1ncnc2c1c(-c1ccccc1)cn2[C@H](CO)c1ccccc1` showed a pIC50 in test [5] of 5.31.

Consider `Nc1ncnc2c1c(-c1cccc(O)c1)cn2C1CCC1`, for which the pIC50 is 8.40 in test [1], 6.52 in test [3] and 7.00 in test [4]. For the same compound, the IC50 in test [2] was 5 nM.

With `Nc1ncnc2c1c(-c1ccccc1)cn2C(CO)Cc1ccc(O)cc1` (stereo unspecified), the pIC50 in test [1] was 5.72; in test [3], 4.88. Also, in test [2], the IC50 was determined as 2200 nM.

With `COc1cccc(-c2cn(C3CC(C(=O)NCCO)C3)c3ncnc(N)c23)c1` (stereo unspecified), the figures for the pIC50 in test [1], in test [3] and in test [4] were 7.70, 6.48 and 5.40, respectively. Moreover, the IC50 in test [2] came out at 230 nM.

Consider `COc1ccc(-c2cn(C3CCCC3)c3ncnc(N)c23)cc1`, for which the pIC50 is 7.10 in test [1], 6.24 in test [3] and 5.92 in test [4]. Also, the IC50 in test [2] came to 260 nM.

On to `Nc1ncnc2c1c(-c1ccccc1)cn2C1CCC1`, for which the pIC50 is 6.96 in test [1], 6.14 in test [3] and 6.00 in test [4]. Further, the IC50 in test [2] was 90 nM.

For the compound `Nc1ncnc2c1c(-c1ccccc1)cn2C1CCCC1`, the figures for the pIC50 in test [1], in test [3] and in test [4] were 6.85, 6.30 and 5.74, respectively. Also, the IC50 in test [2] turned out to be 140 nM.

As for `Nc1ncnc2c1c(-c1ccccc1)cn2C1CC(O)C1` (stereo unspecified), the pIC50 was 7.70 in test [1], 5.55 in test [3] and 5.40 in test [4]. The IC50 in test [2] came out at 390 nM.

On to `COc1cccc(-c2cn(C3CCCC3)c3ncnc(N)c23)c1`, for which the values for the pIC50 in test [1], in test [3] and in test [4] were 8.70, 6.34 and 6.77, respectively. In addition, the IC50 in test [2] turned out to be 170 nM.

`Nc1ncnc2c1c(-c1ccccc1)cn2[C@@H](CO)c1ccccc1`: the results for the pIC50 in test [1] and in test [4] were 6.32 and less than 5.30, respectively.

For the compound `Nc1ncnc2c1c(-c1ccccc1)cn2C(CO)CCc1ccccc1` (stereo unspecified), in test [1], the pIC50 is 5.40.
